# In patent US20230190756A1, “PHARMACEUTICAL FORMULATION FOR THE ELIMINATION OF CAUSATIVE AGENTS OF HERPESVIRAL INFECTIONS FROM THE TISSUES OF A MACROORGANISM” (priority 2017, published 2023):
# What was measured:
# [1] = Biological activity of fully substituted derivatives (test not specified)
# Text: Also, peak (2) was not divided into several small fragments, nor was it possible to separate it using different conditions of thin layer chromatography, which indicates the stable nature of the formed supramolecular structure from different derivatives.
# EBV lymphoma cells = details: cited from earlier work
# [2] = system: p300-induced p65 acetylation; details: in vitro and in vivo; cited from earlier work
# EBV infection = details: cited from earlier work
# HDAC = details: cited from earlier work
Molecule,biological activity [1],further results
octaacetyl glycyrrhizin [fully acetylated glycyrrhizin],did not exhibit biological activity,
Nc1ccccc1NC(=O)c1ccc(CNC(=O)OCc2cccnc2)cc1 [MS275],,effective concentrations for sensitizing to ganciclovir (EBV lymphoma cells): effective at nanomolar concentrations
octasuccinyl glycyrrhizin [Fully succinylated glycyrrhizin],did not exhibit biological activity,
octaacetyl epigalocatechin [fully acetylated epigalocatechin],did not exhibit biological activity,
octasuccinyl epigalocatechin [Fully succinylated epigalocatechin],did not exhibit biological activity,
"O=C(O[C@@H]1Cc2c(O)cc(O)cc2O[C@@H]1c1cc(O)c(O)c(O)c1)c1cc(O)c(O)c(O)c1 [No 13 (Table 1), epigallocatechin gallate]",,p300-induced p65 acetylation [2]: cancels; expression of cytokines induced by EBV infection (EBV infection): completely blocks
trichostatin A [TCA],,IC50% (HDAC): in the nanomolar region
